# Test system: pig corneas
# Assay: Tensile test (stiffness) of pig corneas after treating whole eye globes with cross-linking solution
# Conditions: Experiment 1: diacid/NHS/EDCI solution in PBS with excess EDCI, 30 minutes incubation at 37° C., n=3 (FIG. 1)
# From the text: Pig eyes were collected from the abattoir on the day of slaughter. They were brought to the laboratory and any remaining soft tissue was carefully dissected away leaving just globe and the small section of optic nerve. These were washed 3 times in PBS. A drop of fluorescein dye (1% diluted 1:10 in PBS) was applied to the cornea of each eye to evaluate the integrity of the corneal epithelium (as used in the clinic). The globes were then washed again in PBS 3 times.
# The globes were mounted individually on Perspex rings and placed corneal side down in 6-well cell culture plates. This ensured that the eyes were balanced stably and that the corneal surface was exposed in a controlled manner to the cross-linking solution.
# Dissolve 575 mg of NHS and 775 mg of EDCI in 22.5 ml of PBS. Dissolve 500 mg Sebacic acid (decanedioic acid) or 435 mg of Suberic acid (octanedioic acid) or 365 mg of Adipic acid (hexanedioic acid) in 2.5 ml of PBS. Add each diacid solution to 22.5 ml of NHS/EDCI solution.
# Experiments 2 and 3 used a Molar ratio of […] of suberic:NHS:EDCI using 319 mg NHS, 430 mg EDCI and 241 mg suberic acid. NHS/EDCI dissolved first in 7.5 ml PBS and suberic acid dissolved in 7.5 ml PBS with the addition of 500 ul DMAE to aid solubility. The two solution were added to each other and made up to 15 ml if necessary.
# Add diacid/NHS/EDCI solution (4-5 ml) to 3 eyes for each diacid and add PBS (4-5 ml) to 3 eyes as control. Incubate for 30 minutes at 37° C. After 30 minutes, wash off solution with PBS (5 times).
# Add suberic acid/NHS/EDCI solution (4-5 ml) to 3 eyes and add PBS (4-5 ml) to 3 eyes as control. […]
# Since the cross-linking chemistry is based on EDCI/NHS mediated chemistry, the individual active moieties being used (EDCI and NHS) in the treatment solution are chemically able to crosslink proteins. The ability at which the individual chemicals are able to increase the biomechanical property of the cornea was assessed. Corneas were prepared, the masses of all the chemicals were measured out, and the corneas were treated as described above. […]
row,Compound,increase in stiffness compared to the untreated control corneas [%]
1,"O=C(O)CCCCCCCCC(=O)O [Sebacic acid, decanedioic acid]",54.8
2,"O=C(O)CCCCC(=O)O [adipic acid, hexanedioic acid]",63.6
3,"O=C(O)CCCCCCC(=O)O [suberic acid, octanedioic acid]",84.9
